Results taken from BindingDB's records for doi:10.1021/acsmedchemlett.3c00041 (Insilico Medicine Hong Kong, 2023).

Target: Tyrosine-protein kinase JAK1 (Homo sapiens, UniProt P23458)
Assay: Inhibition of JAK1 (unknown origin)

Sequence of Tyrosine-protein kinase JAK1 (P23458 whole entry): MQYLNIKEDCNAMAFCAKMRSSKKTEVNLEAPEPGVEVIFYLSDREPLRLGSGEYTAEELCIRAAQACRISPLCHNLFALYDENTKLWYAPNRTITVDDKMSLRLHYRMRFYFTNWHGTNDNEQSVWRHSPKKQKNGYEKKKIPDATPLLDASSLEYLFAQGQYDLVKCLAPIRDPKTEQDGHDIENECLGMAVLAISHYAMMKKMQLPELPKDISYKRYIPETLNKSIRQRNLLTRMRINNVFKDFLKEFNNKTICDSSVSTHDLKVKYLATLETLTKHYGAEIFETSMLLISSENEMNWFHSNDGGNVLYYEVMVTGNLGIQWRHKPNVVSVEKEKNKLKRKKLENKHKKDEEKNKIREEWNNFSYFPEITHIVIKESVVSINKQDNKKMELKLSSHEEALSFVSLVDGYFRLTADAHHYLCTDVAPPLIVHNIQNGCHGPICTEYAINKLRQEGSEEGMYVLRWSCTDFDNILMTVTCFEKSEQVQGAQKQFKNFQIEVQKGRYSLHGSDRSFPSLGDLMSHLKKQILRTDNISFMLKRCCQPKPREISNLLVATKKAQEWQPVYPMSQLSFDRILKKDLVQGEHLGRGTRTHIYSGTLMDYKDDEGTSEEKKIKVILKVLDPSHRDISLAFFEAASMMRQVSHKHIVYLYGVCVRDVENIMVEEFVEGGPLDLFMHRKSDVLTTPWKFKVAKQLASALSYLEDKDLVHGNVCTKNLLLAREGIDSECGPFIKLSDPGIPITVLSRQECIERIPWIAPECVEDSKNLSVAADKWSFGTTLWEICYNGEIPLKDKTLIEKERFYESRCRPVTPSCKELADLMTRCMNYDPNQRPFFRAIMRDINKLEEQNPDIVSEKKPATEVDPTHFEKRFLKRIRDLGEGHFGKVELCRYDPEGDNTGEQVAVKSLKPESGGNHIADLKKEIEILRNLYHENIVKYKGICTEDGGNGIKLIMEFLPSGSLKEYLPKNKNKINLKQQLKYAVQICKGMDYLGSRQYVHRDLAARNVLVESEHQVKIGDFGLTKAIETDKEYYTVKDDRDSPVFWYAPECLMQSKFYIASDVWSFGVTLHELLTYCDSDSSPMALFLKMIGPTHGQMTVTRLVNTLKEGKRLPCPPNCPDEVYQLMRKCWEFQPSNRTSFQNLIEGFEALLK

SMILES | IC50 [nM]
CCC1CN(C(=O)NCC(F)(F)F)CC1c1nc(N)nc2[nH]ccc12 (stereo not drawn) | 9600
CCC1CN(C(=O)NCC(F)(F)F)CC1N(C)c1ncnc2[nH]ccc12 (stereo not drawn) | 930
CCC1CN(C(=O)NCC(F)(F)F)CC1NCc1ccc(C)nc1-c1cnc2[nH]ccc2c1 (stereo not drawn) | 500
